# Measured values from US20070043024A1, “Azacyclic compounds as inhibitors of sensory neurone specific channels” (priority 2003, published 2007).
# Biological target: T1, human Nav1.8 (hNav1.8) ion channel (Homo sapiens, UniProt Q9Y5Y9)
# T1 construct: expressed in transfected cells
# Test: Inhibition of human Nav1.8 stably expressed in SH-SY-5Y cells (membrane potential dye fluorescence assay)
# Type: cell-based
# Details: not given
# T1 sequence (Q9Y5Y9 whole entry): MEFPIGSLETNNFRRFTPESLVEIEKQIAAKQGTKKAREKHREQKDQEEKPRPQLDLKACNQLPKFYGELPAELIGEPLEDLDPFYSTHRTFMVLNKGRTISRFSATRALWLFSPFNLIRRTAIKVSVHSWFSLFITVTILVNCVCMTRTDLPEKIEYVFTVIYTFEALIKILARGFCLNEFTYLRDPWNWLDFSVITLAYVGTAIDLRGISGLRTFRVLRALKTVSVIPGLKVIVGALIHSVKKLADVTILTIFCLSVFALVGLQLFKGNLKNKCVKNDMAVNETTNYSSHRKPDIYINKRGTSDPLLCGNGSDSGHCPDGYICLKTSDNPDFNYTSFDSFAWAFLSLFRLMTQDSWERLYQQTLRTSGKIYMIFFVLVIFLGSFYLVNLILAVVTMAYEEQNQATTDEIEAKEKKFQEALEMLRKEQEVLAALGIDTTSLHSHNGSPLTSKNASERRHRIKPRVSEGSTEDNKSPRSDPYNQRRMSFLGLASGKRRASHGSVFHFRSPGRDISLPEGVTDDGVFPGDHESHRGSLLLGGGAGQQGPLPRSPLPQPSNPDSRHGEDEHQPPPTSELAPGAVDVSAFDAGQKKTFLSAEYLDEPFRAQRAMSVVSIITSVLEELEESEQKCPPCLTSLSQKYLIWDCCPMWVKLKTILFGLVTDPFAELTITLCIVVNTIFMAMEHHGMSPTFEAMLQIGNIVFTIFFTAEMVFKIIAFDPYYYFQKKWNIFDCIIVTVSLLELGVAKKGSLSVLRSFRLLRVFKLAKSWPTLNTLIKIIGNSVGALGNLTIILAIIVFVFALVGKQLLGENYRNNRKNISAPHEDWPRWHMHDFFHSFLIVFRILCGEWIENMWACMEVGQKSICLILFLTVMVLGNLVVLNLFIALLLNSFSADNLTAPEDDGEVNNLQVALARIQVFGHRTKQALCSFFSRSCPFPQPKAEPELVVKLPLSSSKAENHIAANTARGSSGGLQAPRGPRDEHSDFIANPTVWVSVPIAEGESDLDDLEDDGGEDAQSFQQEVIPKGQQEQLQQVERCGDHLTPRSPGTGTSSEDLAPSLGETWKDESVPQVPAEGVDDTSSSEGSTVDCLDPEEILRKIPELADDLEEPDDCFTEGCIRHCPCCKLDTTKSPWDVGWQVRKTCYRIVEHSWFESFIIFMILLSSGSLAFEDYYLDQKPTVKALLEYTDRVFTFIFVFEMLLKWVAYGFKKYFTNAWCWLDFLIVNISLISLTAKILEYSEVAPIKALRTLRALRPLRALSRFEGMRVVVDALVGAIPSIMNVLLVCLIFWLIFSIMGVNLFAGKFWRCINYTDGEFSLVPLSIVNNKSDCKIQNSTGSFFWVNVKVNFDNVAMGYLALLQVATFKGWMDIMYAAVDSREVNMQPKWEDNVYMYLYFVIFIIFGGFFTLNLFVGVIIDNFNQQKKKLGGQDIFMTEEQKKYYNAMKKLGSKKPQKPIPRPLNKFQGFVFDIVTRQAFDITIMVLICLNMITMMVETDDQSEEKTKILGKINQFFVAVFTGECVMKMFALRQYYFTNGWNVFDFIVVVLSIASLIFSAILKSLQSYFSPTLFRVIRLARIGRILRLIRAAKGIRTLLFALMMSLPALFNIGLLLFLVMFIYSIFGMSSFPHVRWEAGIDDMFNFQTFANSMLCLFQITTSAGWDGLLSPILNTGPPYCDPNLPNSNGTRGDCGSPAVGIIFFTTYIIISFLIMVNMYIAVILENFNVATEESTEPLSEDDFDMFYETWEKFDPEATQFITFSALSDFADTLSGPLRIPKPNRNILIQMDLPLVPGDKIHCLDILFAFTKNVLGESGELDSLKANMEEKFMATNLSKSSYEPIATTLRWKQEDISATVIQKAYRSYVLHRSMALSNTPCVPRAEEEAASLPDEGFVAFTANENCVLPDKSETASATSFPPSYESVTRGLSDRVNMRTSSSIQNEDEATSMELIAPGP
row,SMILES,IC50 [nM]
1,"O=C(CN1CCc2cccc(O)c2C1)N(c1ccccc1)c1ccc(O)cc1 [Compound 176, 2-(8-Hydroxy-3,4-dihydro-1H-isoquinolin-2-yl)-N-(4-hydroxy-phenyl)-N-phenyl-acetamide]",5950

# Same assay, conditions: Table 1; SH-SY-5Y hNav1.8 cells, inhibition of membrane depolarisation, FLIPR membrane potential dye, 250 nM TTX, test concentration range 100 μM-0.05 μM; read-out: IC50
row,SMILES,IC50 [nM]
1,"Oc1cccc2c1CN(Cc1cc(F)ccc1F)CC2 [Example 92, 2-(2,5-Difluoro-benzyl)-1,2,3,4-tetrahydro-isoquinolin-8-ol]",5270
2,"COc1cccc2c1CN(CC(=O)N1CCN(C(c3ccccc3)c3ccccc3)CC1)CC2 [Example 62, 1-(4-benzhydryl-piperazin-1-yl)-2-(8-methoxy-3,4-dihydro-1H-isoquinolin-2-yl)-ethanone]",5630
3,"O=C(CN1Cc2ccccc2C1)NCCC(c1ccccc1)c1ccccc1 [Example 40, 2-(1,3-Dihydro-isoindol-2-yl)-N-(3,3-diphenyl-propyl)-acetamide]",970
4,"c1ccc(C(CCNCCN2CCc3ccccc3C2)c2ccccc2)cc1 [Example 46, [2-(3,4-Dihydro-1H-isoquinolin-2-yl)-ethyl]-(3,3-diphenyl-propyl)-amine]",290
5,"O=C(CN1Cc2ccccc2C1)N1CCN(C(c2ccccc2)c2ccccc2)CC1 [Example 67, 1-(4-Benzhydryl-piperazin-1-yl)-2-(1,3-dihydro-isoindol-2-yl)-ethanone]",2350
6,"COc1ccc2c(c1)CN(CCN(Cc1ccccc1)Cc1ccccc1)CC2 [Example 88, Dibenzyl-[2-(7-methoxy-3,4-dihydro-1H-isoquinolin-2-yl)-ethyl]-amine]",580
7,"COc1ccc2c(c1)CN(CC(=O)NCCC(c1ccccc1)c1ccccc1)CC2 [Example 86, N-(3,3-Diphenyl-propyl)-2-(7-methoxy-3,4-dihydro-1H-isoquinolin-2-yl)-acetamide]",1460
8,"COc1cccc2c1CN(CC(=O)NC(c1ccccc1)c1ccccc1)CC2 [Example 19, N-Benzhydryl-2-(8-methoxy-3,4-dihydro-1H-isoquinolin-2-yl)-acetamide]",730
9,"COc1cccc2c1CN(C(=S)NCC(c1ccccc1)c1ccccc1)CC2 [Example 52, 8-Methoxy-3,4-dihydro-1H-isoquinolin-2-carbothioic acid (2,2-diphenyl-ethyl)-amide]",4680
10,"O=C(CN1CCc2ccccc2C1)NCCC(c1ccccc1)c1ccccc1 [Example 18, 2-(3,4-Dihydro-1H-isoquinolin-2yl)-N-(3,3-diphenyl-propyl)-acetamide]",680

# Same assay, conditions: Table 2 (compound numbers of the list in the description); SH-SY-5Y hNav1.8 cells, inhibition of membrane depolarisation, FLIPR membrane potential dye, 250 nM TTX, test concentration range 100 μM-0.05 μM; read-out: IC50
row,SMILES,IC50 [nM]
1,"COc1cccc2c1CN(CC(=O)N1Cc3ccccc3Oc3ccccc31)CC2 [Compound 207, 1-(11H-Dibenzo[b,f][1,4]oxazepin-10-yl)-2-(8-methoxy-3,4-dihydro-1H-isoquinolin-2-yl)-ethanone]",940
2,"O=C(CN1Cc2ccccc2C1)NCCC(c1ccccc1)c1ccccc1 [Example 40, 2-(1,3-Dihydro-isoindol-2-yl)-N-(3,3-diphenyl-propyl)-acetamide]",530
3,"COc1cccc2c1CN(CC(=O)N1c3ccccc3OCC1C(C)(C)C)CC2 (centres unmarked) [Compound 206, 1-(3-tert-Butyl-2,3-dihydro-benzo[1,4]oxazin-4-yl)-2-(8-methoxy-3,4-dihydro-1H-isoquinolin-2-yl)-ethanone]",1620
4,"COc1ccc2c(c1)CCCN(CC(=O)NCCC(c1ccccc1)c1ccccc1)C2 [Compound 85, N-(3,3-diphenyl-propyl)-2-(7-methoxy-1,3,4,5-tetrahydro-benzo[c]azepin-2-yl)-acetamide]",1080
5,"CCOc1cccc2c1CN(CC(=O)N(Cc1ccccc1)Cc1ccccc1)CC2 [Compound 91, N,N-Dibenzyl-2-(8-ethoxy-3,4-dihydro-1H-isoquinolin-2-yl)-acetamide]",6980
6,"COc1cc2c(cc1OC)CN(CC(=O)NCC(c1ccccc1)c1ccccc1)CC2 [Compound 126, 2-(6,7-Dimethoxy-3,4-dihydro-1H-isoquinolin-2-yl)-N-(2,2-diphenyl-ethyl)-acetamide]",1930
7,"COc1cc2c(cc1OC)CN(CCC(=O)NCCC(c1ccccc1)c1ccccc1)CC2 [Compound 125, 3-(6,7-Dimethoxy-3,4-dihydro-1H-isoquinolin-2-yl)-N-(3,3-diphenyl-propyl)-propionamide]",380
8,"COc1cccc2c1CN(CC(=O)N(c1ccccc1)c1ccccc1)CC2 [Compound 150, 2-(8-Methoxy-3,4-dihydro-1H-isoquinolin-2-yl)-N,N-diphenyl-acetamide]",1790
9,"CC(=O)Nc1ccc(C(CCNC(=O)CN2CCc3ccccc3C2)c2ccccc2)cc1NC(C)=O (centres unmarked) [Compound 116, N-[3-(3,4-Bis-acetylamino-phenyl)-3-phenyl-propyl]-2-(3,4-dihydro-1H-isoquinolin-2-yl)-acetamide]",22200
10,"O=C(CN1Cc2cccc(Cl)c2C1)N1c2ccccc2Oc2ccccc21 [Compound 219, 2-(4-Chloro-1,3-dihydro-isoindol-2-yl)-1-phenoxazin-10-yl-ethanone]",800
11,"O=C(CN1c2ccccc2Oc2ccccc21)N1Cc2ccccc2C1 [Compound 218, 1-(1,3-Dihydro-isoindol-2-yl)-2-phenoxazin-10-yl-ethanone]",12800
12,"CCC1COc2ccccc2N1C(=O)CN1CCc2cccc(OC)c2C1 (centres unmarked) [Compound 208, 1-(3-Ethyl-2,3-dihydro-benzo[1,4]oxazin-4-yl)-2-(8-methoxy-3,4-dihydro-1H-isoquinolin-2-yl)-ethanone]",1680
13,"Nc1cccc2c1CN(CC(=O)N(Cc1ccccc1)Cc1ccccc1)C2 [Compound 101, 2-(4-Amino-1,3-dihydro-isoindol-2-yl)-N,N-dibenzyl-acetamide]",4260
14,"O=C(CN1CCc2ccc(O)cc2C1)N1c2ccccc2Oc2ccccc21 [Compound 193, 2-(7-Hydroxy-3,4-dihydro-1H-isoquinolin-2-yl)-1-phenoxazin-10-yl-ethanone]",3170
15,"COc1ccc(C(CCNC(=O)CN2CCc3ccccc3C2)c2ccc(OC)cc2)cc1 [Compound 114, N-[3,3-Bis-(4-methoxy-phenyl)-propyl]-2-(3,4-dihydro-1H-isoquinolin-2-yl)-acetamide]",10600
16,"O=C(CN1Cc2ccccc2C1)N1c2ccccc2Oc2ccccc21 [Compound 178, 2-(1,3-Dihydro-isoindol-2-yl)-1-phenoxazin-10-yl-ethanone]",620
17,"COc1ccc(N(C(=O)CN2CCc3cccc(OC)c3C2)c2ccc(OC)cc2)cc1 [Compound 182, 2-(8-Methoxy-3,4-dihydro-1H-isoquinolin-2-yl)-N,N-bis-(4-methoxy-phenyl)-acetamide]",2140
18,"O=C(CN1Cc2ccccc2C1)NC(c1ccc(F)cc1)c1ccc(F)cc1 [Compound 118, N-[Bis-(4-fluoro-phenyl)-methyl]-2-(1,3-dihydro-isoindol-2-yl)-acetamide]",10200
19,"COc1cccc2c1CN(CCNC(=O)NC(c1ccccc1)c1ccccc1)CC2 [Compound 135, 1-Benzhydryl-3-[2-(8-methoxy-3,4-dihydro-1H-isoquinolin-2-yl)-ethyl]-urea]",380
20,"CS(=O)(=O)Oc1cccc2c1CN(CC(=O)N1c3ccccc3Oc3ccccc31)CC2 [Compound 191, Methanesulfonic acid 2-(2-oxo-2-phenoxazin-10-yl-ethyl)-1,2,3,4-tetrahydro-isoquinolin-8-yl ester]",1270
21,"COc1cccc2c1CN(CC(=O)NCCCn1c3ccccc3c3ccccc31)CC2 [Compound 128, N-(3-Carbazol-9-yl-propyl)-2-(8-methoxy-3,4-dihydro-1H-isoquinolin-2-yl)-acetamide]",3510
